Experimental data as given in patent US12129233B2, “Water-soluble salts of cannabinoids, preparation and uses thereof” (priority 2021, dated 2024).
Where a name gives a salt, the structure may show the parent alone. Read-outs that look alike come from different tables or passages of the source.

Key:
[1] = in water; parent cannabinoid without base, literature value (footnotes a-f); cited from earlier work
[2] = in water; synthesized salts (and cannabinol parent)
[3] = physchem; settings: water
[4] = Solubility, in water, synthesized salts (and cannabinol parent)

Row | Molecule | Solubility [2] | further results
1 | C=C(C)[C@@H]1CCC(C)=C[C@H]1c1c(O)cc(CCCCC)cc1O [Cannabidiol] |  | Solubility [1]: 0.0007^[a] mg/mL
2 | C=C(C)[C@@H]1CCC(C)=C[C@H]1c1c(O)cc(CCCCC)c(C(=O)O)c1O [Cannabidiolic acid] |  | Solubility [1]: 2.2^[c] mg/mL
3 | CCCCCc1cc(O)c2c(c1)OC(C)(C)C1CCC(C)=CC21 (centres unmarked) [drawing 25, Δ^9-tetrahydrocannabinol] |  | Solubility [1]: 0.0028^[b] mg/mL
4 | CCCCCc1cc(O)c2c(c1)OC(C)(C)C1CCC(C)=CC21 (centres unmarked) [drawing 25/drawing 26 1:1, Choline Salt with THC (1:1)] | 3 mg/mL | 
5 | CCCCCc1cc(O)c2c(c1)OC(C)(C)C1CCC(C)=CC21 [drawing 25/drawing 27 1:1, L-Lysine Salt with THC (1:1)] | 2 mg/mL | 
6 | CCCCCc1cc(O)c2c(c1)OC(C)(C)C1CCC(C)=CC21 (centres unmarked) [drawing 25/drawing 28 1:1, Meglumine Salt with THC (1:1)] |  | Solubility ([3]; Solubility): 9 mg/mL
7 | CCCCCc1cc(O)c2c(c1)OC(C)(C)C1CCC(C)=CC21 (centres unmarked) [drawing 25/drawing 29 1:1, Agmatine Salt with THC (1:1)] | 0.2 mg/mL | 
8 | C=C(C)C1CCC(C)=CC1c1c(O)cc(CCCCC)c(C(=O)O)c1O (centres unmarked) [drawing 30/drawing 31 1:3, Choline Salt with Cannabidiolic Acid (3:1)] |  | Solubility [3, 4]: 24 mg/mL
9 | CCCCCc1cc2c(c(O)c1C(=O)O)C1C=C(C)CCC1C(C)(C)O2 (centres unmarked) [drawing 32, Tetrahydrocannabinolic acid] |  | Solubility [1]: 0.048^[d] mg/mL
10 | CCCCCc1cc2c(c(O)c1C(=O)O)C1C=C(C)CCC1C(C)(C)O2 (centres unmarked) [drawing 32/drawing 33 1:2, Choline Salt with Tetrahydrocannabinolic Acid (2:1)] |  | Solubility [3, 4]: 20 mg/mL
11 | CCCCCc1cc2c(c(O)c1C(=O)O)C1C=C(C)CCC1C(C)(C)O2 (centres unmarked) [drawing 32/drawing 34 1:2, Meglumine Salt with Tetrahydrocannabinolic Acid (2:1)] |  | Solubility ([3]; Solubility): 20 mg/mL
12 | CCCCCc1cc(O)c(C/C=C(\C)CCC=C(C)C)c(O)c1 [drawing 35/drawing 36 1:1, 1-Benzylpyridinium cannabigerol salt (1:1)] |  | Solubility [3]: 1 mg/mL
13 | CCCc1cc(O)c2c(c1)OC(C)(C)C1CCC(C)=CC21 (centres unmarked) [drawing 37, Δ^9-Tetrahydrocannabivarin] |  | Solubility [1]: 0.009^[f] mg/mL
14 | CCCc1cc(O)c2c(c1)OC(C)(C)C1CCC(C)=CC21 (centres unmarked) [drawing 37/drawing 38 1:1, Tetrakis(2-hydroxyethyl)ammonium Salt with Δ^9-Tetrahydrocannabivarin (1:1)] | 7 mg/mL | 
15 | CCCc1cc(O)c2c(c1)OC(C)(C)C1CCC(C)=CC21 (centres unmarked) [drawing 37/n^−Bu4N^+ 1:1, Tetrabutylammonium Salt with Δ^9-Tetrahydrocannabivarin (1:1)] | 0.2 mg/mL | 
16 | CCCCCc1cc(O)c2c(c1)OC(C)(C)c1ccc(C)cc1-2 [drawing 39, Cannabinol, reference compound] | insoluble | 
17 | CCCCCc1cc(O)c2c(c1)OC(C)(C)c1ccc(C)cc1-2 [drawing 39/Et4N^+ 1:1, Tetraethylammonium Salt with Cannabinol (1:1)] | 0.2 mg/mL | 
18 | CCCCCc1cc(O)c2c(c1)OC(C)(C)c1ccc(C)cc1-2 [drawing 39/drawing 41 1:1, Acetylcholine Salt with Cannabinol (1:1)] | 1 mg/mL | 
19 | Procaine Salt with CBD (1:1) [drawing 17/drawing 22 1:1] | 5 mg/mL | 
20 | Procaine Salt with CBD (2:1) [drawing 17/drawing 22 1:2] | 6 mg/mL | 
